Results reported in publication PMC5862567, “Validating and enabling phosphoglycerate dehydrogenase (PHGDH) as a target for fragment-based drug discovery in PHGDH-amplified breast cancer” (Oncotarget, 2016).
Several values for one entry are separate records, joined by “and”; a condition that tells them apart may be missing. Equal values may be shown once. Entries after “also recorded” stand apart in the source; their conditions may differ. Read-outs that look alike come from different tables or passages of the source.

Assays:
PHGDH = conditions: cited from earlier work
[1] = molecular target: T1, sPHGDH (aa 3-314), cofactor-binding pocket (Homo sapiens, UniProt O43175); assay: ITC competition experiment (NADH titrated into sPHGDH premixed with fragment); conditions: for Kd / ΔH / ΔS: competition ITC, 5 mM fragment, 25 °C; for Kd: 0.5 mM NADH into 0.05 mM sPHGDH, 5 % DMSO; for LE: ΔG per number of non-hydrogen atoms (= #)
T1 construct: the truncated version (sPHGDH, aa 3-314); His6 (N, cleaved yes); TEV protease recognition site (N, cleaved yes); made in house; host or cells: E. coli Rosetta (DE3)
T1 sequence (O43175 3-314): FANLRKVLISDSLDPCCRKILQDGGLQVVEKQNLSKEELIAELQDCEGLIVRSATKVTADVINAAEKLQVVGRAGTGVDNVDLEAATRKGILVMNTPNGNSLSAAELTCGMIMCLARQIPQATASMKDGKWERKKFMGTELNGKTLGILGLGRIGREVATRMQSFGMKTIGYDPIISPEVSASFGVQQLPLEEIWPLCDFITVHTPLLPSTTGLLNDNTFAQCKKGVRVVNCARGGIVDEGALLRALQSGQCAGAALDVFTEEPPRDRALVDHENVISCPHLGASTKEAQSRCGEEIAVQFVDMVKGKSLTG
Protocol: To remove residual bound cofactor, sPHGDH was incubated with 0.5 equivalents of activated charcoal for 30 minutes at room temperature prior to performing the ITC experiments. […] 1 x 0.5 μL, followed by 17 x 2 μL injections of ligands into protein with 120 seconds spacing between the injections was conducted. Titration of 0.5 mM NADH in 5 % DMSO into 0.05 mM sPHGDH in 5 % DMSO was used as reference.

[2] = molecular target: T2, recombinant full-length PHGDH (Homo sapiens, UniProt O43175); assay: Differential scanning fluorimetry (DSF) thermal shift assay, fragment screen; assay type: binding; design: key to Z score: Z-score of Tm shift, in standard deviations from the screen mean; conditions: for Z score: average Z score of primary fragment screens by DSF; for ΔTm at 1000 µM: fragment 1 mM, primary DSF screen, 15 μM PHGDH, read-out: ΔTm (screening hit); for ΔTm (repurchased fragment): DSF
T2 construct: encoding for the full-length enzyme (aa 1-533); His6 (N, cleaved yes); TEV protease recognition site (N, cleaved yes); made in house; host or cells: E. coli Rosetta (DE3)
T2 sequence (O43175 1-533): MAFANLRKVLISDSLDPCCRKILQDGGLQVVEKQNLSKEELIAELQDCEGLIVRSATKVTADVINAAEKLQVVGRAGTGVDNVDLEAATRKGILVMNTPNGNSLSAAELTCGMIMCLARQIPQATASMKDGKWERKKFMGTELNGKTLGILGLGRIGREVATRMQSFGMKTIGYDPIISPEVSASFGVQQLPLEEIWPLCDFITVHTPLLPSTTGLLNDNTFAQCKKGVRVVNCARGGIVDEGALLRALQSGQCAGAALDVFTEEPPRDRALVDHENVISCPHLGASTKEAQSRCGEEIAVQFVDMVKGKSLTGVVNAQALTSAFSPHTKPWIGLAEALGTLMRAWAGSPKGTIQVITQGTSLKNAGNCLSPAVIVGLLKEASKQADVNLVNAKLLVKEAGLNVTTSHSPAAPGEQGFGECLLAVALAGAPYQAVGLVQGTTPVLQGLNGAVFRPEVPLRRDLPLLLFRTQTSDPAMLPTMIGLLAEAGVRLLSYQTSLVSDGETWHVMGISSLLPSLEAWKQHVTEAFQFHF
Protocol: In this study a ‘rule-of-three’ [18] compliant library of 600 fragments (CRT Cambridge, UK) was screened against recombinant full-length PHGDH using a differential scanning fluorimetry (DSF) assay. PHGDH has an average melting temperature (Tm) of 54 °C. Fragments were screened at 1 mM in the presence of 1 % DMSO. 1 mM NADH was used as positive control, and gave an increased Tm of 61 °C, corresponding to a Δ Tm of 7 °C (Supplementary Figure S2). Hits were determined based on an average Z-score ≥ 1, i.e. to a change in Tm of PHGDH equal to or greater than one standard deviation of the mean (Supplementary Table S1). Applying this threshold, 42 compounds were classified as hits, which corresponds to a hit rate of […]. A subset of 15 fragments was commercially available and were repurchased and further evaluated in an ITC competition experiment (Figure 3, Table 1, Supplementary Figure S3). The ITC competition experiments confirmed binding of 13 fragments to the cofactor-binding pocket of PHGDH. […] In order to further characterise the hits, and to help us prioritise their use as seeds for further hit-expansion studies, we undertook a crystallographic investigation of their respective binding modes.
The DSF assay was performed in 384-well plates (Corning, black) in 25 mM HEPES, pH 7.5, 100 mM NaCl, 0.5 mM TCEP, 10 x SYPRO® Orange (Thermo Fisher Scientific), in a final volume of 15 μL containing 15 μM PHGDH and […]. The fragments were added from a 100 mM master stock in 100 % DMSO to a final concentration of 1 mM using an ECHO® acoustic liquid handler (Labcyte). Reference wells contained DMSO only and 1 mM NADH was used as positive control.
The heat denaturation profile of PHGDH was followed using the fluorescence of Sypro Orange with excitation and emission wavelengths of 470 and 570 nm, respectively. Analysis was performed in GraphPad Prism using the Boltzmann equation to determine the melting temperature, Tm, which is the inflection point of the sigmoidal denaturation curve.

For `CCOC(=O)c1sc(NC(=O)c2ccco2)c(SC#N)c1C` [CBR-5884], the “mode of PHGDH inhibition” value (PHGDH) is given as “non-competitive”.

For `CCc1nc(C)c[nH]1` [Fragment 2, 2-Ethyl-4-methylimidazole], the Kd [1] was “No competition”, the Z score [2] was 1.0 ± 1.0 and the ΔTm at 1000 µM [2] was 2 ± 2.1 °C. The “ΔTm (repurchased fragment)” value [2] was -0.1 ± 0.2 °C.

For `Cn1nc(-c2ccccc2)cc1N` [Fragment 3, 1-Methyl-3-phenyl-1H-pyrazol-5-amine], the Kd ([1]; read-out: Kd) was 5.8 ± 2 mM, the ΔH [1] was -111.7 kcal/mol and the ΔS [1] was -1.61 kJ (mol x K). The LE [1] was 0.23 kcal/(mol·heavy atom), the Z score [2] was 1.0 ± 0.4 and the ΔTm at 1000 µM [2] was 2.2 ± 0.8 °C. For the same compound, the “ΔTm (repurchased fragment)” value [2] was -0.2 ± 0.2 °C.

For `Oc1ncnc2cccc(F)c12` [Fragment 4, 5-Fluoro-4-hydroxy quinazoline], the Kd ([1]; read-out: Kd) was 12.8 ± 2.7 mM, the ΔH [1] was 1.98 kcal/mol and the ΔS [1] was -0.01 kJ (mol x K). For the same compound, the LE [1] was 0.21 kcal/(mol·heavy atom), the Z score [2] was 1.0 ± 0.8 and the ΔTm at 1000 µM [2] was 2.4 ± 1.1 °C. For the same compound, the “ΔTm (repurchased fragment)” value [2] was 0.2 ± 0.3 °C.

For `NC(=O)c1ccc(F)c(Cl)c1` [Fragment 5, 3-Chloro-4-fluorobenzamide], the Kd ([1]; read-out: Kd) was 1.6 ± 0.2 mM, the ΔH [1] was -1.29 kcal/mol and the ΔS [1] was -0.07 kJ (mol x K). The LE [1] was 0.35 kcal/(mol·heavy atom), the Z score [2] was 1.0 ± 0.8 and the ΔTm at 1000 µM [2] was 2.3 ± 1 °C. For the same compound, the “ΔTm (repurchased fragment)” value [2] was -0.1 ± 0.2 °C.

For `Cc1cccc2cc[nH]c12` [Fragment 6, 7-Methyl-1H-indole], the Kd ([1]; read-out: Kd) was 1.5 ± 0.2 mM, the ΔH [1] was -380.95 kcal/mol and the ΔS [1] was -5.40 kJ (mol x K). For the same compound, the LE [1] was 0.38 kcal/(mol·heavy atom), the Z score [2] was 1.1 ± 0.7 and the ΔTm at 1000 µM [2] was 2.4 ± 1.2 °C. For the same compound, the “ΔTm (repurchased fragment)” value [2] was 0.2 ± 0.2 °C.

In the case of `Cc1cncc(Oc2cccc(CO)c2)n1` [Fragment 7, [3-(6-Methylpyrazin-2-yl)oxyphenyl] methanol], the Kd ([1]; read-out: Kd) is reported as 16.6 ± 10.4 mM, the ΔH [1] is reported as 3.78 kcal/mol and the ΔS [1] is reported as 0.02 kJ (mol x K). For the same compound, the LE [1] was 0.15 kcal/(mol·heavy atom), the Z score [2] was 1.2 ± 0.9 and the ΔTm at 1000 µM [2] was 1.8 ± 1.7 °C. The “ΔTm (repurchased fragment)” value [2] was -0.3 ± 0.2 °C.

In the case of `O=C1COc2cc(O)ccc21` [Fragment 8, 6-Hydroxy-2,3-dihydrobenzo[b] furan-3-one], the Kd ([1]; read-out: Kd) is reported as 5.9 ± 1.5 mM, the ΔH [1] is reported as -69.96 kcal/mol and the ΔS [1] is reported as -1.02 kJ (mol x K). For the same compound, the LE [1] was 0.28 kcal/(mol·heavy atom), the Z score [2] was 1.5 ± 0.4 and the ΔTm at 1000 µM [2] was 1.7 ± 0.6 °C. For the same compound, the “ΔTm (repurchased fragment)” value [2] was 0.4 ± 0.4 °C.

With `Cn1ccc2cc(N)ccc21` [Fragment 9, 5-Amino-1-methyl-1H-indole] the Kd ([1]; read-out: Kd) was 11.1 ± 5 mM, the ΔH [1] was -24.38 kcal/mol and the ΔS [1] was -0.38 kJ (mol x K). For the same compound, the LE [1] was 0.24 kcal/(mol·heavy atom), the Z score [2] was 1.8 ± 1.4 and the ΔTm at 1000 µM [2] was 2 ± 1.2 °C. The “ΔTm (repurchased fragment)” value [2] was 1.2 ± 0.4 °C.

With `Nc1cccc(-c2cnco2)c1` [Fragment 10, 3-(1,3-oxazol-5-yl)aniline] the ΔH [1] was -62.33 kcal/mol, the ΔS [1] was -0.91 kJ (mol x K) and the Z score [2] was 1.0 ± 0.9. For the same compound, the ΔTm at 1000 µM [2] was 1.4 ± 0.6 °C and the “ΔTm (repurchased fragment)” value [2] was -0.8 ± 0.3 °C.

With `Cc1cncc(Oc2cccc(N)c2)n1` [Fragment 11, 3-(6-Methylpyrazin-2-yl)oxyaniline] the Kd ([1]; read-out: Kd) was 11.5 ± 8.4 mM, the ΔH [1] was -2.75 kcal/mol and the ΔS [1] was -0.08 kJ (mol x K). For the same compound, the LE [1] was 0.18 kcal/(mol·heavy atom), the Z score [2] was 1.1 ± 0.6 and the ΔTm at 1000 µM [2] was 1.7 ± 0.7 °C. For the same compound, the “ΔTm (repurchased fragment)” value [2] was -0.6 ± 0.6 °C.

With `c1ccc(Cn2ccnc2)cc1` [Fragment 12, 1-Benzylimidazole] the Kd ([1]; read-out: Kd) was 11.8 ± 9.6 mM, the ΔH [1] was -15.4 kcal/mol and the ΔS [1] was -0.25 kJ (mol x K). For the same compound, the LE [1] was 0.22 kcal/(mol·heavy atom), the Z score [2] was 1.1 ± 0.2 and the ΔTm at 1000 µM [2] was 1.3 ± 0.9 °C. The “ΔTm (repurchased fragment)” value [2] was -0.6 ± 0.4 °C.

In the case of `Oc1ccnc(O)c1` [Fragment 13, 2,4.Dihydroxy pyridine], the Kd [1] is reported as “No competition”, the Z score [2] is reported as 1.4 ± 0.2 and the ΔTm at 1000 µM [2] is reported as 0.8 ± 0.1 °C. The “ΔTm (repurchased fragment)” value [2] was 0.3 ± 0.1 °C.

For `Cc1ccc(F)cc1C(=O)O` [Fragment 14, 5-Fluoro-2-methylbenzoic acid], the Kd ([1]; read-out: Kd) was 26 mM and 26.2 mM, the ΔH [1] was -11.2 kcal/mol and the ΔS [1] was -0.19 kJ (mol x K). The LE [1] was 0.2 kcal/(mol·heavy atom), the Z score [2] was 1.1 ± 0.2 and the ΔTm at 1000 µM [2] was 1.4 ± 0.5 °C. For the same compound, the “ΔTm (repurchased fragment)” value [2] was 0.4 ± 0.3 °C.

With `COc1ccc(NC(C)=O)cc1Cl` [Fragment 15, N-(3-chloro-4-methoxyphenyl) acetamide] the Kd ([1]; read-out: Kd) was 2.8 ± 1.6 mM, the ΔH [1] was -419.02 kcal/mol and the ΔS [1] was -5.93 kJ (mol x K). The LE [1] was 0.27 kcal/(mol·heavy atom), the Z score [2] was 1.2 ± 0.3 and the ΔTm at 1000 µM [2] was 1.3 ± 0.2 °C. For the same compound, the “ΔTm (repurchased fragment)” value [2] was -0.2 ± 0.4 °C.

For `Oc1noc2ccccc12` [Fragment 16, 3-Hydroxy benzisoxazole], the Kd ([1]; read-out: Kd) was 6.5 ± 4.7 mM, the ΔH [1] was -91.44 kcal/mol and the ΔS [1] was -1.33 kJ (mol x K). For the same compound, the LE [1] was 0.3 kcal/(mol·heavy atom), the Z score [2] was 1.4 ± 0.7 and the ΔTm at 1000 µM [2] was 2.5 ± 0.7 °C. For the same compound, the “ΔTm (repurchased fragment)” value [2] was 0.2 ± 0.3 °C.

In the case of `Oc1noc2cc(Cl)ccc12` [Fragment 17, 6-chloro-3-hydroxybenzisoxazole], the Kd ([1]; read-out: Kd) is reported as 2.4 ± 0.7 mM, the ΔH [1] is reported as -362.64 kcal/mol and the ΔS [1] is reported as -5.14 kJ (mol x K). For the same compound, the LE [1] was 0.32 kcal/(mol·heavy atom).

In the case of `Cc1cccc2c(O)noc12` [Fragment 18], the Kd ([1]; read-out: Kd) is reported as 15.9 ± 7.4 mM, the ΔH [1] is reported as -46.44 kcal/mol and the ΔS [1] is reported as -0.67 kJ (mol x K). The “fold reduced affinity compared to fragment 16” value ([1]; competitive ITC Kd, versus 16) was 2.5 fold and the LE [1] was 0.22 kcal/(mol·heavy atom).

With `Oc1noc2ccc(F)cc12` [Fragment 19, 5-fluoro-3-hydroxybenzisoxazole] the Kd ([1]; read-out: Kd) was 15.4 ± 10.2 mM, the ΔH [1] was -45.43 kcal/mol and the ΔS [1] was -0.67 kJ (mol x K). The “fold weaker binding affinity compared to 17” value ([1]; competitive ITC Kd, versus 17) was 6 fold and the LE [1] was 0.22 kcal/(mol·heavy atom).

For `Oc1noc2ccc(Br)cc12` [Fragment 20], the Kd [1] was “no binding affinity was detected; also recorded: Compound precipitated”.

With `NC(=O)C1=CN([C@@H]2O[C@H](COP(=O)(O)OP(=O)(O)OC[C@H]3O[C@@H](n4cnc5c(N)ncnc54)[C@H](O)[C@@H]3O)[C@@H](O)[C@H]2O)C=CC1` [NADH, reference compound] the ΔTm ([2]; 1 mM NADH positive control) was 7 °C and the “Tm of PHGDH in presence of compound” value ([2]; 1 mM NADH positive control, PHGDH alone Tm 54 °C) was 61 °C.
